PMC3930709, “Selective Activation of hTRPV1 by N-Geranyl Cyclopropylcarboxamide, an Amiloride-Insensitive Salt Taste Enhancer” (PLoS ONE, 2014)

What was measured:
Format in all cases: cell-based
hTRPA1 = biological target: T1, hTRPA1 (Homo sapiens, UniProt O75762); experiment: Whole-cell patch clamp recording, cells stably expressing hTRPA1; details: AITC 100 µM; NGCC 10^3 µM; holding -80 mV
T1 construct: expressed in transfected cells
Experimental: Flp-In 293 cell lines stably expressing hTRPA1constructed as previously reported was a gift from the professor Takumi Misaka at University of Tokyo. The hTRPA1-expressing cells were cultured in DMEM containing 10% FBS and 0.02% hygromycin B (Invitrogen). Flp-In 293 cell lines were maintained in DMEM containing 10% FBS. All cells were incubated at 37°C in a humidified atmosphere of 5% CO2.
(§1) The whole-cell configuration was used to voltage-clamp at room temperature (22–25°C). Electrodes pulled from glass micropipette capillaries (Sutter Instrument) had resistances of 2–2.5 MΩ, and series resistance errors were compensated >60%. Fast and slow capacitances were compensated before the application of test-pulse. Recordings were performed using aHEKAEPC-10 amplifier with pulse software (HEKA Elektronik). The pipette solution contained: 140 mM KCl, 5 mM MgCl2, 10 mM HEPES, 0.1 mM 1,2-bis(2-aminophenoxy) ethane N,N,N’,N’-tetraacetic acid(BAPTA), 3 mM Na2ATP, and 0.1 mM Na3GTP, adjusted to pH 7.4 with KOH. The external Ringer’s solution used for recording TRPV1 and TRPA1 currents contained: 150 mM NaCl, 5 mM KCl, 1 mM MgCl2, 2 mM EGTA, 10 mM Glucose, and 10 mM HEPES, adjusted to pH 7.4 with NaOH. TRPV1 and TRPA1 currents were recorded by holding the cell at −80 mV. The external Ringer’s solution used for recording ASIC current contained: 160 mM NaCl, 5 mM KCl, 1 mM MgCl2, 2 mM CaCl2, and 10 mM HEPES, adjusted to pH 7.4 with tetramethylammonium hydroxide. For acidic solution of pH 6.0, HEPES was replaced with MES. ASIC currents were recorded by holding the cell at −70 mV. Reagents were obtained as follows: BAPTA, Na2ATP, Na3GTP, EGTA, and tetramethylammonium hydroxide (Sigma), HEPES (Calbiochem), MES (Alfa Aesar), and other chemicals (Merck).

αβγ hENaC = biological target: T2, αβγ hENaC (Homo sapiens, UniProt P37088+P51168+P51170); experiment: Membrane potential assay (FMP dye) on αβγ hENaC-expressing cells; details: continuous presence of Bz (0.01 µM)
T2 construct: GFP; host or cells: HEK293T
T2 sequence (P37088 1-669): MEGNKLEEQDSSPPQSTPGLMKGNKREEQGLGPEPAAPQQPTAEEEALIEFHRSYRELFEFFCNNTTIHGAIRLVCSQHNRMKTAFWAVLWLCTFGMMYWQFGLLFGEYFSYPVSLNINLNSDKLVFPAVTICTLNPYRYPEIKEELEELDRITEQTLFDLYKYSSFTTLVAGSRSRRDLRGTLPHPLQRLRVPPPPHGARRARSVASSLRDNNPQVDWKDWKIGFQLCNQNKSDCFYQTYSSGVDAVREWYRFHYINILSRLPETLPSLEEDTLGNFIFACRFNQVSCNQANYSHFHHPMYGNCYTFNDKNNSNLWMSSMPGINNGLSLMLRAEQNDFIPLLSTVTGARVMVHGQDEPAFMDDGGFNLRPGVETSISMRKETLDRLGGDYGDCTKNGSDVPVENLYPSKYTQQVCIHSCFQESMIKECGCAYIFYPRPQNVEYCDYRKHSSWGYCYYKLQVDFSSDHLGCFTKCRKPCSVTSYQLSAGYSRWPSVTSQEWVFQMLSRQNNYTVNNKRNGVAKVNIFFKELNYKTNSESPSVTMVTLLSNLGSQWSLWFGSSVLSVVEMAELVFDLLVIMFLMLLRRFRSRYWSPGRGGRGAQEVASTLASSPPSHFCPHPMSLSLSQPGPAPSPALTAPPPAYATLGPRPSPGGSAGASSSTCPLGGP
T2 sequence (P51168 1-640): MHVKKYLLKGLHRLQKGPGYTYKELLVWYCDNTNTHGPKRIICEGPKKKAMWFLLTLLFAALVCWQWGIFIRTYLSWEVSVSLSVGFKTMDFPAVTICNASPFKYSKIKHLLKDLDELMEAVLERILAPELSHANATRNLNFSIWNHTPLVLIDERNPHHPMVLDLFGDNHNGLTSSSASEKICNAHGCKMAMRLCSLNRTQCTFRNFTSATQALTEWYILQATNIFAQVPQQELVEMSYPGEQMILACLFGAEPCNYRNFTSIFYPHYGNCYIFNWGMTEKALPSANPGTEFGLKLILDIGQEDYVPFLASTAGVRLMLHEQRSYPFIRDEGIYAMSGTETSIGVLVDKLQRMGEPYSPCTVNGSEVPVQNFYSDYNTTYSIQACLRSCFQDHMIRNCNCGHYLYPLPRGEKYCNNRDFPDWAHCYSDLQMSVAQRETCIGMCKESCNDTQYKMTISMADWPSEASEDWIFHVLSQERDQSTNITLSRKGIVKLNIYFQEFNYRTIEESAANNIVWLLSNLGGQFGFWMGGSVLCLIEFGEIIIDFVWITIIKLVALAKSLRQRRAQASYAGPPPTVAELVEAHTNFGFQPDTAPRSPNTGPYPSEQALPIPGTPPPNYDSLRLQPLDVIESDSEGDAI
T2 sequence (P51170 1-649): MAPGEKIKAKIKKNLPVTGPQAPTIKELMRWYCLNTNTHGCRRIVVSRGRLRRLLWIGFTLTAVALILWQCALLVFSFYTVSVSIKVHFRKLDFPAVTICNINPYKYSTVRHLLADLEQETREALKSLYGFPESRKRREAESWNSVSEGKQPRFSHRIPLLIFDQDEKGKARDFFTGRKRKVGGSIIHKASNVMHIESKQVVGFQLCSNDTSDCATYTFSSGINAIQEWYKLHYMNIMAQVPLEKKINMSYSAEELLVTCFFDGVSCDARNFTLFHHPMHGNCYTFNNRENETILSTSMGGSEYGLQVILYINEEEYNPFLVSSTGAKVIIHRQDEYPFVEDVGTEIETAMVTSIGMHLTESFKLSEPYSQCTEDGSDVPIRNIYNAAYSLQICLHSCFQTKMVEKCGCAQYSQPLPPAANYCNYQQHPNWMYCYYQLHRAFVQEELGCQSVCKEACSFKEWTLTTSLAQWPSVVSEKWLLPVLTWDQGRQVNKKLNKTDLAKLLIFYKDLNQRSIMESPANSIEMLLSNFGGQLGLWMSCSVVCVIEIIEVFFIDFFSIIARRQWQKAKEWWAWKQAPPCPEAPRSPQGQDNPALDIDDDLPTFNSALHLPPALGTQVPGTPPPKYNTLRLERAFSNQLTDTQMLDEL
Experimental: The α, β, and γ hENaC subunits were cloned from OriGene (Rockville, MD; GenBank accession number […] for SCNN1A, NM_000336 for SCNN1B and NM_001039 for SCNN1G). α, GFP-tagged β, and γ hENaC were cloned into a CMV promoter-based vector and expressed constitutively. The HEK293T cells were seeded onto a 35 mm dish and transfected with α, β, and γ hENaC expression plasmid using Lipofectamine 2000 (Invitrogen). Then, transfected cells were seeded onto 96-well black-wall plate for 18–26 h prior to their use in an experiment.
hENaC-expressing cells were characterized using FLIPER Membrane Potential (FMP) Assay Kit (Molecular Devices Corporation, Sunnyvale, CA, USA). In this assay, changes in the membrane potential were quantified via fluorescence change caused by FMP dye. The hENaC-expressing cells were washed with assay buffer (containing: 130 mM NaCl, 10 mM glucose, 5 mM KCl, 2 mM CaCl2, 1.2 mM MgCl2, and 10 mM HEPES, pH adjusted to 7.4 with NaOH) and subsequently, FMP blue-dye in assay buffer was loaded into the cells at room temperature for 30 min. After dye treatment, S3969 (0.03−10 µM), an ENaC agonist, S3969+Bz (ENaC antagonist, 0.01 µM), or NGCC (0.01−10 µM) was treated to hENaC-expressing cells. The plate was assayed in a FlexStation III plate reader (Molecular devices Corporation) by excitation at 530 nm and measuring the emission at 560 nm.

hTRPV1 [1] = biological target: T3, hTRPV1 (Homo sapiens, UniProt Q8NER1); experiment: Whole-cell patch clamp recording, hTRPV1-expressing HEK293T cells
T3 construct: expressed in transfected cells; host or cells: HEK293T
Experimental: Mouse ASIC1a (mASIC1a) was a kind gift from John A. Wemmie (University of Iowa, IA, USA). For electrophysiological experiments, HEK293T cells were cultured in DMEM supplemented with 10% FBS and 0.2% penicillin/streptomycin and transiently transfected using Lipofectamine 2000 (Invitrogen) with various cDNAs. For TRPV1 channel expression, cells were transfected with hTRPV1, for ASIC1a homomeric channel expression, cells were transfected with mASIC1a. When needed, 0.1–0.2 µg of cDNA encoding tetrameric red fluorescence protein (DsRed) was co-transfected with the cDNA as a marker for successfully transfected cells. For non-transfected cells, cells were transfected with 0.1–0.2 µg of cDNA encoding DsRed alone. The next day, cells were plated onto poly-L-lysine-coated coverslip chips, and fluorescent cells were studied within 1–2 days.
as §1

hTRPV1 [2] = biological target: T3, hTRPV1; experiment: Measurement of Ca2+ influx (Fluo-4 AM, FlexStation III) in hTRPV1-expressing cells; details: RR 30 µM or CPZ 1 µM added with agonist
Experimental: hTRPV1 was constructed by amplification of the hTRPV1 region (NCBI accession number: NG_029716.1) and cloned into pEAK10 vector (Edge Biosystems, Gaithersburg, MD, USA). The hTRPV1 construct was amplified by PCR and the nucleotide sequence of the hTRPV1 gene was confirmed by sequencing with an ABI 3130 DNA genetic analyzer (Applied Biosystems, Foster City, CA, USA). […] After 6 h, transfected cells were seeded onto 96-well black-wall plate (BD Falcon Labware, Franklin Lakes, NJ, USA) for 18–26 h prior to their use in an experiment. The ligand-induced changes on cytosolic Ca^2+ level were monitored by a FlexStation III microplate reader (Molecular Devices). Fluo-4 AM (5 µM, Molecular Probes, Eugene, OR, USA) in assay buffer was loaded to the cells in 96-well black-wall plates for 30 min at 27°C. After dye treatment, each chemical was added to each well at 17 s and changes on intracellular Ca^2+ level were monitored by relative fluorescence units (ΔRFU, Ex = 485 nm; Em = 516 nm) for 120 s. […] The responses from at least three wells receiving the same stimulus were averaged. Plots of amplitude versus concentration were fitted using the Hill equation.

hTRPV1 [3] = biological target: T3, hTRPV1; experiment: Ca2+ imaging (Fura-2 AM) of hTRPV1-expressing HEK293T cells; details: NGCC 30 µM; RR 30 µM, CPZ 1 µM
Experimental: hTRPV1 was constructed by amplification of the hTRPV1 region (NCBI accession number: NG_029716.1) and cloned into pEAK10 vector (Edge Biosystems, Gaithersburg, MD, USA). The hTRPV1 construct was amplified by PCR and the nucleotide sequence of the hTRPV1 gene was confirmed by sequencing with an ABI 3130 DNA genetic analyzer (Applied Biosystems, Foster City, CA, USA). […] After 6 h, transfected cells were seeded onto 96-well black-wall plate (BD Falcon Labware, Franklin Lakes, NJ, USA) for 18-26 h prior to their use in an experiment. Mock-transfected HEK293T cells, hTRPV1-expressing HEK293T cells, non-hTRPA1-expressing Flp-In 293 cells, and hTRPA1-expressing Flp-In 293 cells grown in 96-well black-wall plates were rinsed with assay buffer (130 mM NaCl, 10 mM glucose, 5 mM KCl, 2 […]2, 1.2 mM MgCl2, and 10 mM HEPES, pH 7.4) and loaded with 5 μM Fura-2 AM (Invitrogen) for 30 min at 27°C. […] The fluorescence intensities of Fura-2 excited at 340 and 380 nm were simultaneously measured at 510 nm using a computer-controlled filter changer (Lambda DG4; Sutter, San Rafael, CA, USA), an Andor Luca CCD camera (Andor Technology, Belfast, UK), and an inverted fluorescence microscope (IX-71; Olympus, Tokyo, Japan). Intracellular calcium images were recorded every 3-s for 60-s and analyzed using MetaFluor software (Molecular Devices, Sunnyvale, CA, USA).

[4] = first pulse normalized to 1.0, n = 4

T3 sequence (Q8NER1 whole entry): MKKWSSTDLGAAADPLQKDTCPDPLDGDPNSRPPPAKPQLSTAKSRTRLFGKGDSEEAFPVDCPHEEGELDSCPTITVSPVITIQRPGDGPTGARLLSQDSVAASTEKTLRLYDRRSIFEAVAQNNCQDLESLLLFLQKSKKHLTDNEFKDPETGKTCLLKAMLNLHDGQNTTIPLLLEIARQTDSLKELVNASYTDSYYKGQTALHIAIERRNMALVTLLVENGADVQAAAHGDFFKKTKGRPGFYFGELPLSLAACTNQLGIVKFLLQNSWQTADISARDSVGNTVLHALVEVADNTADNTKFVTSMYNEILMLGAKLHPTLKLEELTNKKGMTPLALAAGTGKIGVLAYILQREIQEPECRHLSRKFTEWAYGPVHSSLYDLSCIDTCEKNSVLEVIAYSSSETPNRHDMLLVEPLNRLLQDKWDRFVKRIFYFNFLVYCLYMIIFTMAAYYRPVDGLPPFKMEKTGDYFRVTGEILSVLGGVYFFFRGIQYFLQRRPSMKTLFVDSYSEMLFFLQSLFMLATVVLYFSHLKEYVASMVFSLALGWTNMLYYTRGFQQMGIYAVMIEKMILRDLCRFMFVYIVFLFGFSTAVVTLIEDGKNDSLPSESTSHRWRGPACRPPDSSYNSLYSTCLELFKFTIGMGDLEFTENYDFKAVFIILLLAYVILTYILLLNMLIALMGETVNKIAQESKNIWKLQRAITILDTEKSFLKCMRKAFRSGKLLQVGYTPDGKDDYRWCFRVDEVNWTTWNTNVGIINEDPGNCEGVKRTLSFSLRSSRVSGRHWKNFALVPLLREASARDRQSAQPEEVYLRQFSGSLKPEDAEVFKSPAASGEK
T1 sequence (O75762 whole entry): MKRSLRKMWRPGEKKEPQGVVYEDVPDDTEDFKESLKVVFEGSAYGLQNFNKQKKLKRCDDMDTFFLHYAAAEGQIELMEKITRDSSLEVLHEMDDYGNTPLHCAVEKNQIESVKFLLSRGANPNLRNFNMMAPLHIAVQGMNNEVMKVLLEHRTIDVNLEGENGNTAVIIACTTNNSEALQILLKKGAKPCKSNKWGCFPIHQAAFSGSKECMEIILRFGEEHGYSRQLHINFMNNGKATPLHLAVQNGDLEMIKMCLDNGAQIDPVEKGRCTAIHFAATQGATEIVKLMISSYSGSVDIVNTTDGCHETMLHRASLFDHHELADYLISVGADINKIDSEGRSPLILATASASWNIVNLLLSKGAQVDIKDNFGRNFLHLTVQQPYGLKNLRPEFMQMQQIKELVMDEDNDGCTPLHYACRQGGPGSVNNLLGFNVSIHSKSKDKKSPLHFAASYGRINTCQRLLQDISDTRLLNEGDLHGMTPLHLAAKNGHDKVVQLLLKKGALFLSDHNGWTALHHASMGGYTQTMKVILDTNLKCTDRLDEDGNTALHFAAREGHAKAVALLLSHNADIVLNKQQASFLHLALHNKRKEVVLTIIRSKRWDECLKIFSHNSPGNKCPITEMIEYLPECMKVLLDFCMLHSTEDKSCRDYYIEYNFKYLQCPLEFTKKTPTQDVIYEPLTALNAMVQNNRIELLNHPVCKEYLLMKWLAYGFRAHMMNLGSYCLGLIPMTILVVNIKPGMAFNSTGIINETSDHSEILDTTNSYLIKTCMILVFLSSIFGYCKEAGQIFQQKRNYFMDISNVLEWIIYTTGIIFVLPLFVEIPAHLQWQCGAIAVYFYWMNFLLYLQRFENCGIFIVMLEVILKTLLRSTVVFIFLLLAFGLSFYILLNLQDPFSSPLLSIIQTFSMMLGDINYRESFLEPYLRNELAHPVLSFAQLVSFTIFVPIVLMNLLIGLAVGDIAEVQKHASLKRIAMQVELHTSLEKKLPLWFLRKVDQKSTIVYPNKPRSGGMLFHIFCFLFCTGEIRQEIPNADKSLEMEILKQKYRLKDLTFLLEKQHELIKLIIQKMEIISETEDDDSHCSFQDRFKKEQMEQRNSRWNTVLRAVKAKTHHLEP

In the case of `C=CCN=C=S` [AITC, Allylisothiocyanate], the “inward current in hTRPA1-expressing cells” value (hTRPA1) is reported as “evoked an inward current”.
With `NC(=NCc1ccccc1)NC(=O)c1nc(Cl)c(N)nc1N` [Bz, benzamil] the “inhibition of S3969 activity on αβγ hENaC-expressing cells” value (αβγ hENaC) was “No effect of S3969 was observed”.
In the case of `Oc1cc2c(cc1O)CN(C(=S)NCCc1ccc(Cl)cc1)CCC2` [CPZ, capsazepine], the “block of capsaicin-induced current” value (hTRPV1 [1]; CPZ 1 µM preincubation 20 seconds, capsaicin 100 nM) is reported as “blocked”, the “normalized current density of NGCC-induced current after wash out of CPZ” value (hTRPV1 [1]; [4]) is reported as 0.61±0.12 and the “normalized current density of NGCC-induced current under CPZ” value (hTRPV1 [1]; [4]) is reported as 0.12±0.05. The “block of capsaicin- and NGCC-induced hTRPV1 activation (dose-response)” value (hTRPV1 [2]) was “blocked the effects of capsaicin and NGCC” and the “block of NGCC-induced Ca2+ influx in hTRPV1-expressing cells” value (hTRPV1 [3]) was “blocked NGCC activity to baseline levels”.
